Test results from US20230263822A1, “MODULATION OF FACTOR 11 EXPRESSION” (Ionis Pharmaceuticals, Inc., priority 2008, published 2023).
Strand notation (5' to 3'): a small letter for the sugar, then the base; units joined by * are phosphorothioate-linked, units joined directly phosphodiester-linked; [ ] holds rarer units or linkages, { } end groups; capitals alone tell only the bases. e = 2'-O-(2-methoxyethyl) (MOE); [5mC] = 5-methylcytosine; d = 2'-deoxy (DNA)

Assays:
human Factor 11 mRNA [1] = assay: Antisense inhibition of human Factor 11 in HepG2 cells, lipofectin, 75 nM (Example 1); assay type: cell-based; details: 75 nM antisense oligonucleotide, ~24 h, relative to untreated control cells, gapmers targeted to SEQ ID NO: 2
Summary of the method: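 HepG2 cells transfected via lipofectin with 75 nM antisense oligonucleotide (5-10-5 MOE gapmers, 20-mers, phosphorothioate, 5-methylcytidines), treated ~24 h. Factor 11 mRNA quantified by real-time PCR, normalised to RIBOGREEN total RNA; percent inhibition versus untreated cells.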

human Factor 11 mRNA [2] = assay: Antisense inhibition of human Factor 11 in HepG2 cells, electroporation, 8,000 nM (Example 30); assay type: cell-based; details: electroporation, 8,000 nM antisense oligonucleotide
Description: These microwalk gapmers were tested in vitro. Cultured HepG2 cells at a density of 20,000 cells per well were transfected using electroporation with 8,000 nM antisense oligonucleotide. After a treatment period of approximately 24 hours, RNA was isolated from the cells and Factor 11 mRNA levels were measured by quantitative real-time PCR. Factor 11 mRNA levels were adjusted according to total RNA content, as measured by RIBOGREEN. Results are presented as percent inhibition of Factor 11, relative to untreated control cells.
The chimeric antisense oligonucleotides in Table 44 were designed as 5-10-5 MOE, 5-8-5 and 6-8-6 MOE gapmers. The first two listed gapmers in Table 44 are the original gapmers (ISIS 416850 and ISIS 416858) from which ISIS 445493-445543 were designed via microwalk, and are designated by an asterisk. The 5-10-5 gapmers are 20 nucleotides in length, wherein the central gap segment is comprised of ten 2′-deoxynucleotides and is flanked on both sides (in the 5′ and 3′ directions) by wings comprising five nucleotides each. The 5-8-5 gapmers are 18 nucleotides in length, wherein the central gap segment is comprised of eight 2′-deoxynucleotides and is flanked on both sides (in the 5′ and 3′ directions) by wings comprising five nucleotides each. The 6-8-6 gapmers are 20 nucleotides in length, wherein the central gap segment is comprised of eight 2′-deoxynucleotides and is flanked on both sides (in the 5′ and 3′ directions) by wings comprising six nucleotides each. For each of the motifs (5-10-5, 5-8-5 and 6-8-6), each nucleotide in the 5′ wing segment and each nucleotide in the 3′ wing segment has a 2′-MOE modification. The internucleoside linkages throughout each gapmer are phosphorothioate (P=S) linkages. All cytidine residues throughout each gapmer are 5-methylcytidines. “Human Target start site” indicates the 5′-most nucleotide to which the gapmer is targeted in the human sequence. “Human Target stop site” indicates the 3′-most nucleotide to which the gapmer is targeted in the human sequence. Each gapmer listed in Table 44 is targeted to SEQ ID NO: 1 (GENBANK Accession No. NM_000128.3). Each gapmer is Table 44 is also fully cross-reactive with the rhesus monkey Factor 11 gene sequence, designated herein as SEQ ID NO: 274 (exons 1-15 GENBANK Accession No. NW_001118167.1). ‘Rhesus monkey start site’ indicates the 5′-most nucleotide to which the gapmer is targeted in the rhesus monkey sequence. ‘Rhesus monkey stop site’ indicates the 3′-most nucleotide to which the gapmer is targeted to the rhesus monkey sequence.

Substance | % inhibition (human Factor 11 mRNA [1]) | Percent inhibition of human Factor 11 mRNA levels (human Factor 11 mRNA [2])
413531 (antisense eG*eT*eA*e[5mC]*eA*d[5mC]*dT*d[5mC]*dT*dG*d[5mC]*dA*dA*d[5mC]*dA*eG*eA*eA*eG*e[5mC]) [compound 413531] | 47% | –
413532 (antisense eA*eG*eG*eG*eA*dA*dT*dA*dA*d[5mC]*dA*dT*dG*dA*dA*eG*eG*e[5mC]*e[5mC]*e[5mC]) [compound 413532] | 32% | –
413533 (antisense eA*eT*e[5mC]*e[5mC]*eA*dG*dT*dT*d[5mC]*dA*d[5mC]*d[5mC]*dA*dT*dT*eG*eG*eA*eG*eA) [compound 413533] | 48% | –
413534 (antisense eT*eT*eT*eT*e[5mC]*d[5mC]*dA*dG*dA*dA*dG*dA*dG*dA*d[5mC]*eT*e[5mC]*eT*eT*e[5mC]) [compound 413534] | 31% | –
413535 (antisense eG*eT*e[5mC]*eA*e[5mC]*dA*dT*dT*dT*dA*dA*dA*dA*dT*dT*eT*e[5mC]*e[5mC]*eA*eA) [compound 413535] | 41% | –
413536 (antisense eT*eT*eA*eA*eT*dA*dT*dA*d[5mC]*dT*dG*d[5mC]*dA*dG*dA*eG*eA*eA*e[5mC]*e[5mC]) [compound 413536] | 37% | –
413537 (antisense eA*eG*eA*eA*eA*dT*dA*dT*d[5mC]*d[5mC]*d[5mC]*d[5mC]*dA*dG*dA*e[5mC]*eA*eG*eA*eG) [compound 413537] | 16% | –
445493 (antisense eA*e[5mC]*eA*eG*eT*eT*dT*d[5mC]*dT*dG*dG*d[5mC]*dA*dG*eG*e[5mC]*e[5mC]*eT*e[5mC]*eG) [compound 445493] | – | 69%
445494 (antisense e[5mC]*eA*e[5mC]*eA*eG*eT*dT*dT*d[5mC]*dT*dG*dG*d[5mC]*dA*eG*eG*e[5mC]*e[5mC]*eT*e[5mC]) [compound 445494] | – | 85%
445495 (antisense eG*e[5mC]*eA*e[5mC]*eA*eG*dT*dT*dT*d[5mC]*dT*dG*dG*d[5mC]*eA*eG*eG*e[5mC]*e[5mC]*eT) [compound 445495] | – | 89%
445496 (antisense eT*eG*e[5mC]*eA*e[5mC]*eA*dG*dT*dT*dT*d[5mC]*dT*dG*dG*e[5mC]*eA*eG*eG*e[5mC]*e[5mC]) [compound 445496] | – | 87%
445497 (antisense eG*eT*eG*e[5mC]*eA*e[5mC]*dA*dG*dT*dT*dT*d[5mC]*dT*dG*eG*e[5mC]*eA*eG*eG*e[5mC]) [compound 445497] | – | 81%
445499 (antisense eT*eG*eG*eT*eG*e[5mC]*dA*d[5mC]*dA*dG*dT*dT*dT*d[5mC]*eT*eG*eG*e[5mC]*eA*eG) [compound 445499] | – | 75%
445500 (antisense eT*eT*eG*eG*eT*eG*d[5mC]*dA*d[5mC]*dA*dG*dT*dT*dT*e[5mC]*eT*eG*eG*e[5mC]*eA) [compound 445500] | – | 81%
445501 (antisense eA*eT*eT*eG*eG*eT*dG*d[5mC]*dA*d[5mC]*dA*dG*dT*dT*eT*e[5mC]*eT*eG*eG*e[5mC]) [compound 445501] | – | 83%
445502 (antisense e[5mC]*eA*eT*eT*eG*eG*dT*dG*d[5mC]*dA*d[5mC]*dA*dG*dT*eT*eT*e[5mC]*eT*eG*eG) [compound 445502] | – | 83%
